Results reported in ChEMBL document CHEMBL1141738, “Antihyperglycemic effects of N-containing sugars from Xanthocercis zambesiaca, Morus bombycis, Aglaonema treubii, and Castanospermum australe in streptozotocin-diabetic mice” (1998).
Calls of active or inactive are those of the source. No cut-off for these calls is given here.

Columns and labels:
Mus musculus [1] = organism: Mus musculus; test: Antihyperglycemic effect on STZ-diabetic ddY mouse assessed as reduction in blood glucose level by glucose oxidase method; type: functional, organism-based
Mus musculus [2] = test: Antihyperglycemic effect in STZ-diabetic ddY mouse assessed as reduction in blood glucose level at 150 umol/kg, ip after 4 hrs by glucose oxidase method; type: functional, organism-based
Mus musculus [3] = test: Antihyperglycemic effect in STZ-diabetic ddY mouse assessed as reduction in blood glucose level at 150 umol/kg, ip after 4 to 6 hrs by glucose oxidase method; type: functional, organism-based
Mus musculus [4] = test: Antihyperglycemic effect in STZ-diabetic ddY mouse assessed as reduction in blood glucose level at 150 umol/kg, ip after 2 hrs by glucose oxidase method; type: functional, organism-based; conditions: TDE = time-dependent effect
Pancreas [5] = test: Potentiation of 8.3 mM glucose-induced immunoreactive insulin release in perfused Wistar rat pancreas at 1 mM by radioimmunoassay; type: functional, tissue-based
Pancreas [6] = test: Potentiation of 8.3 mM glucose-induced immunoreactive insulin release in perfused Wistar rat pancreas by radioimmunoassay; type: functional, tissue-based
Mus musculus [7] = test: Antihyperglycemic effect on STZ-diabetic ddY mouse assessed as increase in plasma insulin level at 300 umol/kg, ip after 30 mins by ELISA; type: functional
Mus musculus [8] = test: Antihyperglycemic effect on STZ-diabetic ddY mouse assessed as increase in plasma insulin level at 300 umol/kg, ip after 2 hrs by ELISA; type: functional
Mus musculus [9] = test: Antihyperglycemic effect in STZ-diabetic ddY mouse assessed as reduction in blood glucose level at 30 umol/kg, ip after 6 hrs by glucose oxidase method; type: functional

SMILES: OC[C@H]1NCC[C@@H](O)[C@@H]1O[C@@H]1O[C@H](CO)[C@@H](O)[C@H](O)[C@H]1O
- Activity (Mus musculus [1]): Dose-dependent effect

SMILES: OC[C@H]1N[C@H](CO)[C@@H](O)[C@@H]1O
- Activity (Mus musculus [2]): Active

SMILES: O[C@H]1[C@H](O)[C@@H](O)CN2CC[C@H](O)[C@H]12
- Activity (Mus musculus [3]): Active

SMILES: OC[C@H]1NCC[C@@H](O)[C@@H]1O [FAGOMINE]
- Activity (Mus musculus [4]): tde
- Activity (Pancreas [5]): Active
- Activity (Pancreas [6]): Dose-dependent effect
- Activity (Mus musculus [7]): 454 pg/mL
- Activity (Mus musculus [8]): 560 pg/mL

SMILES: COc1ccc(Cl)cc1C(=O)NCCc1ccc(S(=O)(=O)NC(=O)NC2CCCCC2)cc1 [GLYBURIDE]
- Activity (Mus musculus [9]): 138 mg/dL
